Laboratory results from US11040031B2, “Pyrazole derivatives as MALT1 inhibitors” (Janssen Pharmaceutica NV, priority 2018, dated 2021).
Like-named read-outs stand apart in the source and are kept apart here.

How the values were obtained:
[1] = test system: Secretion of IL10 by OCI-LY3 ABC-DLBCL cells; experiment: Human IL10 Mesoscale assay (OCI-LY3); assay type: cell-based; conditions: read-out: Human IL10 Mesoscale assay (OCI-LY3)
Procedure, shortened: (§1)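 TMD8 or OCI-LY3 ABC-DLBCL cells incubated with compound 24 h at 37° C without beta-mercaptoethanol. Secreted IL6 and IL10 in supernatant quantified by MSD electrochemiluminescence immunoassay; DMSO wells define maximum signal.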

[2] = test system: Secretion of IL6 by OCI-LY3 ABC-DLBCL cells; experiment: Human IL6 Mesoscale assay (OCI-LY3); assay type: cell-based; conditions: read-out: Human IL6 Mesoscale assay (OCI-LY3)
Procedure, shortened: as §1

[3] = test system: OCI-Ly3 ABC-DLBCL cell line; experiment: 4-day proliferation assay OCI-Ly3; assay type: cell-based; conditions: Homo sapiens, read-out: Anti-proliferation: OCI-LY-3 IC50
Experimental: To assess anti-proliferative effects, MALT1 inhibitor test compounds were tested in 4-day proliferation assays using three different DLBCL cell lines.
Cells should be kept between 0.5-2.5 million cells per mL during culturing and cells should be supplemented every 2-3 days with fresh 50 μM beta-mercaptoenthanol. No beta-mercaptoethanol is used during the proliferation assay. OCI-Ly7 cells were propagated in IMDM (ThermoFisher) supplemented with 10% fetal bovine serum (HyClone), 2 mM L-glutamine (Sigma Aldrich) and 50 μg/mL Gentamycin. Cell passage numbers should not exceed 30.
10,000 TMD8, 10,000 OCI-Ly3 or 2,000 OCI-Ly7 cells were seeded in 100 μL media per well and incubated for 4 days at 37° C. and 5% CO2. Cell plating numbers were chosen based on growth curves to ensure linear cell growth. After 4 days of incubation 50 μl CellTiterGLO reagent (Promega) were added to each well and luminescence was measured on the Envision after 10 min of incubation at room temperature.

[4] = molecular target: T1, full-length MALT1 protein (Strep-MALT1(1-824)-His) (Homo sapiens, UniProt Q9UDY8); experiment: biochemical;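 also: fluorogenic LRSR-AMC substrate cleavage by MALT1, 50 min compound preincubation then 4 h reaction at RT, 11-point dilution from 30 µM, scaled between enzyme-free and untreated enzyme controls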
T1 sequence (Q9UDY8 1-824): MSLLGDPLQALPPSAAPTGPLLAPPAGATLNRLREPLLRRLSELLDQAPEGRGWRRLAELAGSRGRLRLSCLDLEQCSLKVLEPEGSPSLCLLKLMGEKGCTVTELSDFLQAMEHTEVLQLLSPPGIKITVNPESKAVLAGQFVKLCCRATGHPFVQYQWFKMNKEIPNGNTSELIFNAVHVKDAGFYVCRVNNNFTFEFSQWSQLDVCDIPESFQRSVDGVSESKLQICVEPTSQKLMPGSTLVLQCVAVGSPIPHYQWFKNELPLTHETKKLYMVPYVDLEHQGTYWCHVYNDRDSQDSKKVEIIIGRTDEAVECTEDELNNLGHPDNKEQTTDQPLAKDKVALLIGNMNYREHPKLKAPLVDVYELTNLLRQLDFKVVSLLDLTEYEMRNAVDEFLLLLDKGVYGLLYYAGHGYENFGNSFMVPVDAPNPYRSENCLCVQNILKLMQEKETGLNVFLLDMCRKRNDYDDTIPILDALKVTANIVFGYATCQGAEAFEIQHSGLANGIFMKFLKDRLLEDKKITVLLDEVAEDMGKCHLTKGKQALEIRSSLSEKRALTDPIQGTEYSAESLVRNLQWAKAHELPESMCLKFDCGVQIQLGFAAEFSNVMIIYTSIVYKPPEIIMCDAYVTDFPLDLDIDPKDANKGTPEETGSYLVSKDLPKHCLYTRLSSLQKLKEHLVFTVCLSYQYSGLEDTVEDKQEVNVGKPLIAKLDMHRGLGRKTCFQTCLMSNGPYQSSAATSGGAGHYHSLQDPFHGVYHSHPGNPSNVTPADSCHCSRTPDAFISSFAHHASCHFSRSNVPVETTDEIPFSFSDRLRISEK
Experimental: MALT1 protease activity was assessed in an in vitro assay using a tetrapeptide as substrate and full-length MALT1 protein (Strep-MALT1(1-824)-His) purified from baculovirus-infected insect cells. The tetrapeptide LRSR is coupled to AMC (7-amino-4-methylcoumarin) and provides a quenched, fluorescent substrate for the MALT1 protease (SM Biochemicals). Cleavage of AMC from the Arginine residue results in an increase in coumarin fluorescence measured at 460 nm (excitation 355 nm). […] Test compounds were spotted at 50 nL in 100% DMSO per well of a black 384-Proxiplate (Perkin Elmer). Test compound concentrations ranged from 30 μM to 0.5 nM using 11 dilution steps (1:3). Background signal was measured from control wells containing assay buffer without enzyme which functions as low control (LC). High control (HC) values were generated using the reaction with enzyme but no compound treatment. Compounds were pre-incubated with MALT1 enzyme for 50 minutes at RT. Substrate was added subsequently and fluorescence was measured in Labsystems fluoroskan at excitation 355 nm and emission 460 nm to determine time 0. The reaction was subsequently incubated for 4 h at RT and fluorescence was measured. […] The enzyme reaction was linear during the 4 h incubation period.
IC50 values were calculated using the following formula (Z prime should be >0.5):
From this an IC50 value (inhibitory concentration causing 50% inhibition) can be obtained. An estimate of the slope of the plot in terms of the Hill coefficient was also obtained.
With y=estimated response • UB=upper bound • LB=lower bound • h=hill

[5] = OCI-LY3 cells, 24 h incubation, supernatant, MSD V-Plex
[6] = 96 h, 10,000 OCI-Ly3 cells per well, 4 days, CellTiterGLO

SMILES | IC50 [1, 5] [nM] | IC50 [2, 5] [nM] | IC50 [3, 6] [nM] | IC50 [4] [nM] | IC50 ([1]; OCI-Ly3, 24 h) [nM] | IC50 ([2]; OCI-Ly3, 24 h) [nM] | IC50 ([3]; OCI-Ly3, 96 h) [nM]
Cc1nc(-n2ncc(C(=O)Nc3cnc(-n4nccn4)c(C#N)c3)c2C(F)(F)F)ccc1F [Cpd 160, N-(5-cyano-6-(2H-1,2,3-triazol-2-yl)pyridin-3-yl)-1-(5-fluoro-6-methylpyridin-2-yl)-5-(trifluoromethyl)-1H-pyrazole-4-carboxamide] | 457 | 646 | 490 | 288 |  |  | 
Nc1nccc(-n2ncc(C(=O)Nc3cnc(-n4nccn4)c(Cl)c3)c2C(F)(F)F)c1Cl [Cpd 57, 1-(2-amino-3-chloropyridin-4-yl)-N-(5-chloro-6-(2H-1,2,3-triazol-2-yl)pyridin-3-yl)-5-(trifluoromethyl)-1H-pyrazole-4-carboxamide] |  |  |  | 107 | 117 | 162 | 1200
N#Cc1cc(NC(=O)c2cnn(-c3ccc(F)c(F)c3Cl)c2C(F)(F)F)cnc1-n1nccn1 [Cpd 60, 1-(2-chloro-3,4-difluorophenyl)-N-(5-cyano-6-(2H-1,2,3-triazol-2-yl)pyridin-3-yl)-5-(trifluoromethyl)-1H-pyrazole-4-carboxamide] | 151 | 178 | 741 | 71 |  |  | 
N#Cc1cc(NC(=O)c2cnn(-c3ccccc3C3CC3)c2C(F)(F)F)cnc1-n1nccn1 [Cpd 100, N-(5-cyano-6-(2H-1,2,3-triazol-2-yl)pyridin-3-yl)-1-(2-cyclopropylphenyl)-5-(trifluoromethyl)-1H-pyrazole-4-carboxamide] | 93 | 129 | 269 | 170 |  |  | 
N#Cc1cc(NC(=O)c2cnn(-c3ccc(F)cc3F)c2C(F)(F)F)cnc1-n1nccn1 [Cpd 111, N-(5-cyano-6-(2H-1,2,3-triazol-2-yl)pyridin-3-yl)-1-(2,4-difluorophenyl)-5-(trifluoromethyl)-1H-pyrazole-4-carboxamide] | 63 | 71 | 1820 | 112 |  |  | 
Cc1ccc(F)cc1-n1ncc(C(=O)Nc2cnc(-n3nccn3)c(C#N)c2)c1C(F)(F)F [Cpd 103, N-(5-cyano-6-(2H-1,2,3-triazol-2-yl)pyridin-3-yl)-1-(5-fluoro-2-methylphenyl)-5-(trifluoromethyl)-1H-pyrazole-4-carboxamide] |  |  |  | 148 | 141 | 129 | 275
O=C(Nc1cnc(-n2nccn2)c(Cl)c1)c1cnn(-c2cccc3c2OC(F)(F)O3)c1C(F)(F)F [Cpd 58, N-(5-chloro-6-(2H-1,2,3-triazol-2-yl)pyridin-3-yl)-1-(2,2-difluorobenzo[d][1,3]dioxol-4-yl)-5-(trifluoromethyl)-1H-pyrazole-4-carboxamide] | 195 | 407 | 7240 | 145 |  |  | 
O=C(Nc1cnc(-n2nccn2)c(Cl)c1)c1cnn(-c2ccnc3c2OCO3)c1C(F)(F)F [Cpd 52, 1-([1,3]dioxolo[4,5-b]pyridin-7-yl)-N-(5-chloro-6-(2H-1,2,3-triazol-2-yl)pyridin-3-yl)-5-(trifluoromethyl)-1H-pyrazole-4-carboxamide] | 56 | 120 | 2400 | 55 |  |  | 
CN1CCCc2cccc(-n3ncc(C(=O)Nc4cnc(-n5nccn5)c(C#N)c4)c3C(F)(F)F)c21 [Cpd 131, N-(5-cyano-6-(2H-1,2,3-triazol-2-yl)pyridin-3-yl)-1-(1-methyl-1,2,3,4-tetrahydroquinolin-8-yl)-5-(trifluoromethyl)-1H-pyrazole-4-carboxamide] |  |  | 19100 | 776 |  |  | 
N#Cc1cc(NC(=O)c2cnn(-c3ccnc(N)c3Cl)c2C(F)(F)F)cnc1-n1nccn1 [Cpd 56, 1-(2-amino-3-chloropyridin-4-yl)-N-(5-cyano-6-(2H-1,2,3-triazol-2-yl)pyridin-3-yl)-5-(trifluoromethyl)-1H-pyrazole-4-carboxamide] |  |  |  | 78 | 363 | 389 | 5010

The remaining lines, values ahead:

IC50 [1, 5] [nM] | IC50 [2, 5] [nM] | IC50 [3, 6] [nM] | IC50 [4] [nM] | IC50 ([1]; OCI-Ly3, 24 h) [nM] | IC50 ([2]; OCI-Ly3, 24 h) [nM] | IC50 ([3]; OCI-Ly3, 96 h) [nM] | SMILES
49 | 69 | 2510 | 24 |  |  |  | N#Cc1cc(NC(=O)c2cnn(-c3ccc(F)c(N)n3)c2C(F)(F)F)cnc1-n1nccn1 [Cpd 63, 1-(6-amino-5-fluoropyridin-2-yl)-N-(5-cyano-6-(2H-1,2,3-triazol-2-yl)pyridin-3-yl)-5-(trifluoromethyl)-1H-pyrazole-4-carboxamide]
120 | 166 | 479 | 151 |  |  |  | Cc1cccc(F)c1-n1ncc(C(=O)Nc2cnc(-n3nccn3)c(C#N)c2)c1C(F)(F)F [Cpd 101, N-(5-cyano-6-(2H-1,2,3-triazol-2-yl)pyridin-3-yl)-1-(2-fluoro-6-methylphenyl)-5-(trifluoromethyl)-1H-pyrazole-4-carboxamide]
138 | 138 | 1260 | 162 |  |  |  | COc1cc(F)ccc1-n1ncc(C(=O)Nc2cnc(-n3nccn3)c(Cl)c2)c1C(F)(F)F [Cpd 81, N-(5-chloro-6-(2H-1,2,3-triazol-2-yl)pyridin-3-yl)-1-(4-fluoro-2-methoxyphenyl)-5-(trifluoromethyl)-1H-pyrazole-4-carboxamide]
71 | 98 | 851 | 54 |  |  |  | N#Cc1cc(NC(=O)c2cnn(-c3ccc(F)cc3Cl)c2C(F)(F)F)cnc1-n1nccn1 [Cpd 51, 1-(2-chloro-4-fluorophenyl)-N-(5-cyano-6-(2H-1,2,3-triazol-2-yl)pyridin-3-yl)-5-(trifluoromethyl)-1H-pyrazole-4-carboxamide]
427 | 380 | 912 | 45 |  |  |  | Nc1nc(-n2ncc(C(=O)Nc3cnc(-n4nccn4)c(Cl)c3)c2C(F)(F)F)ccc1F [Cpd 62, 1-(6-amino-5-fluoropyridin-2-yl)-N-(5-chloro-6-(2H-1,2,3-triazol-2-yl)pyridin-3-yl)-5-(trifluoromethyl)-1H-pyrazole-4-carboxamide]
166 | 191 | 437 | 263 |  |  |  | N#Cc1cc(NC(=O)c2cnn(-c3c(F)cccc3Cl)c2C(F)(F)F)cnc1-n1nccn1 [Cpd 98, 1-(2-chloro-6-fluorophenyl)-N-(5-cyano-6-(2H-1,2,3-triazol-2-yl)pyridin-3-yl)-5-(trifluoromethyl)-1H-pyrazole-4-carboxamide]
 |  |  | 170 | 174 | 148 | 324 | N#Cc1cc(NC(=O)c2cnn(-c3c(F)cc(F)cc3Cl)c2C(F)(F)F)cnc1-n1nccn1 [Cpd 99, 1-(2-chloro-4,6-difluorophenyl)-N-(5-cyano-6-(2H-1,2,3-triazol-2-yl)pyridin-3-yl)-5-(trifluoromethyl)-1H-pyrazole-4-carboxamide]
